Assay results from patent publication US20040009904A1, “APL immunoreactive peptides, conjugates thereof and methods of treatment for aPL antibody-mediated pathologies” (priority 1995, published 2004).
“And” between values parts separate entries of the source, which are not always exact repeats. Identical values can stand only once. Bridge positions count the residues as written; N and C are the ends. Peptide text beside a SMILES is read from it.

Legend:
ACA-6501 = test: Competitive binding peptide ACA ELISA, cardiolipin/β2-GPI-coated plates; parameters: species or system human
How it was run: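 Monomeric peptides at several amounts were preincubated ~1 h at RT with ACA-6501 serum (final 1:400), then added to cardiolipin-coated, fish-gelatin-blocked plates with β2-GPI for 1 h at RT. Bound IgG was detected with alkaline phosphatase anti-human IgG and phenolphthalein monophosphate, read at 550 nm. IC50 was the peptide amount at half-maximal absorbance.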

ACA = test: Structure Activity Relationship of the Crossreactive ACA Epitope (relative activity); type: binding, human; settings: LJP 688 = 100
Source text: Peptide 6641/3G3 (LJP 688) was subjected to a number of analyses. The analyses included truncation at both the N-terminus and the C-terminus, disulfide substitution, substitution of alanine and glycine for amino acids in positions 2 through 8, substitution of branched aliphatic amino acids in positions 2, 4, 5 and 8, substitution of amino acids affecting conformation of the peptide, including substitution of α-methyl amino acids, substitution of basic amino acids in position 7, substitution of D-amino acids in positions 2 through 9, and the substitution of N-α-methyl amino acids in positions 1 through 9.

ACA antibodies = test: Competitive binding peptide ACA ELISA, cardiolipin/β2-GPI-coated plates, panel of ACA antibodies (average); parameters: species or system human
Method: (§1) A variation of this assay uses microtitration plates coated with human β2-glycoprotein I/cardiolipin (β2-GPI/CL) instead of tetravalent peptide and tests the ability of monomeric peptides to block the binding of aPL antibody to the epitope(s) on β2-GPI/CL. In this assay, IgG-depleted human serum at an optimized concentration is used as a source of β2-GPI. The monomeric peptides at several concentrations are incubated with an optimized concentration of aPL antibody in a manner analogous to the assay which employs tetravalent peptide as a plate substrate. Following the incubation of aPL/peptide in (β2-GPI/CL) plates, antibody binding and the peptide concentration required for 50% inhibition is determined at half-maximal absorbance as in the tetravalent assay.
(§2) Peptide sequences for all five peptides immediately follow the table. All were tested using the competitive binding peptide ACA ELISA using CL/β2-GPI plates as described herein.
As noted in Section I above, one synthetic peptide, 6641/3G3 was tested against several high titer ACA antisera. This peptide appeared to be crossreactive with the vast majority of ACA antisera tested as illustrated in FIG. 14.
(§3) (B) Immulon I® 96-well, flat-bottom, polystyrene microtitration plates (Dynatech Laboratories, Inc., Chantilly, Va.) were coated with 30 μL/well of cardiolipin (CL, 50 μg; Sigma Chemical Co., St. Louis, Mo.) in ethanol. Two control wells received 30 μL ethanol only. After overnight evaporation at 4° C., each well was blocked with 200 μL of 5% (w/v) fish gelatin in PBS for 2 hours at RT.
(§4) The CL/β2-GPI microtitration plate was washed 5 times with TBS and 100 μL aliquots in duplicate from Eppendorf tubes #1, 2, 3, and 4 containing the antibody-peptide (or no peptide mixtures) were added to the wells. A volume of 100 μL from tube #4 was added to the duplicate control wells containing no cardiolipin. The microtitration plate was incubated for 1 hour at RT with agitation at 40 rpm in an orbital shaker (American Scientific, Rotator V), washed 5 times with TBS and then 100 μL of 1:1000 goat anti-human IgG alkaline phosphatase conjugate (Zymed, Cat No. 62-8422) in 0.5% (w/v) BSA-TBS was added. Following incubation for 1 hour at RT, the microtitration plate was again washed 5 times with TBS and the colorimetric enzyme detection developed by adding 100 μL of PMPP solution (7.8 g phenolphthalein monophosphate plus 69.5 g of 2-amino-2-methyl-1-propanol in 100 mL water stock solution diluted 1:26 with water). After 21 minutes, the reaction was stopped by adding 50 μL of 0.2 M Na2HPO4 (Mallinckrodt) to each well. Absorbance at 550 nm was read in a microplate reader (Bio-Tek Instruments, Model EL 311). The amount of peptide that inhibited ACA-6501 binding by 50%, the IC50, was calculated from the graph at the intersection of half-maximal absorbance with amount of peptide added.

ACA-6635 = test: Competitive binding peptide ACA ELISA, cardiolipin/β2-GPI-coated plates; parameters: species or system human; settings: ACA serum 6635 RS
ACA-6641 [1] = test: Phage-capture ELISA; type: binding, human; settings: ACA-6641 screen
Method: The phage-capture ELISA consists of the following steps. Microtitration wells are coated with aPL antibody and phage clones are added as in the micropanning assay. Unbound phage are washed away and the amount of bound phage is quantitated using an enzyme-conjugated goat antiserum which binds the major coat protein of the phage. Phage screened using phage-capture ELISA react with many aPL antibodies and provide a strong signal in subsequent ELISA assays. This intermediate level of sensitivity allows for greater efficiency in the peptide synthesis effort since few micropanning-positive phage are phage-capture ELISA positive. As a result, peptides synthesized from positive phage-capture ELISA phage are generally immunoreactive.
AffACA-6641 was isolated from 4 mL of plasma taken from patient number 6641. AffACA-6641 (10 μg) was incubated with the pooled p-III phage libraries in a final volume of 100 μL as described previously. Following four rounds of biopanning, 45 clones from the 3rd and 4th rounds were tested by micropanning. Of the 45, 23 scored negative. The 3rd round phage yielded two clones that scored 4+, two that scored 3+ and two that scored 2+. From the 4th round, one clone scored 4+, one scored 3+ and three scored 2+. […] Four base DNA sequencing gave the following translated peptide sequence: […]

ACA-7005 = test: Competitive binding peptide ACA ELISA, cardiolipin/β2-GPI-coated plates; parameters: species or system human
Method: as §1, §2, §3, §4

ACA-6638 = test: as above; parameters: species or system human
Method: as §1, §2, §3, §4

ACA-6701 = test: as above; parameters: species or system human
Method: as §1, §2, §3, §4

ACA-6644 = test: as above; parameters: species or system human
Method: as §1, §2, §3, §4

ACA-7004 = test: as above; parameters: species or system human
Method: as §1, §2, §3, §4

ACA-6626 = test: as above; parameters: species or system human
Method: as §1, §2, §3, §4

ACA-6641 [2] = test: as above; parameters: species or system human
Method: as §1, §2, §3, §4

ACA-6903 = test: as above; parameters: species or system human
Method: as §1, §2, §3, §4

[3] = peptide 1 mg/mL, affinity purified antibody

Compound: CC(C)C[C@@H]1NC(=O)[C@@H](NC(=O)[C@@H]2CCCN2C(=O)CNC(=O)[C@H](C)N)CSSC[C@@H](C(=O)N2CCC[C@H]2C(=O)NCC(=O)O)NC(=O)[C@H](CC(C)C)NC(=O)[C@H](CCCCN)NC(=O)CNC(=O)[C@H](CC(C)C)NC(=O)[C@H](C(C)C)NC(=O)CNC1=O [LJP 688, AGP-CLGVLGKLC-PG] (H-AGPCLGVLGKLCPG-OH; disulfide 4-12)
- IC50 for peptide LJP 688 (ACA-6501; ACA serum 6501 RS, RFL): 890 µg/mL and 1100 µg/mL
- with ACA 6501 150 ug/mL (ACA-6501; Optimization of Peptide 3G3, inf = no 50% inhibition): 850 µg/mL
- Percent Inhibition of AffACA by Peptide Monomers, 6501 (ACA-6501; [3]): 86%
- Relative Activity (ACA): 100
- complete inhibition, cross-reactivity with 10 of 10 ACA antibodies (ACA antibodies; at 1.8 mg/mL): > 80%
- IC50 for peptide LJP 688, mean ± sd (ACA antibodies; mean over ten ACA sera): 860 ± 160 µg/mL
- Percent Inhibition of AffACA by Peptide Monomers, Ave. (ACA antibodies; peptide 1 mg/mL, average over nine antibodies): 97%
- IC50 for peptide LJP 688 (ACA-6635): 1000 µg/mL
- result in the phage-capture ELISA (ACA-6641 [1]): strongly positive
- IC50 for peptide LJP 688 (ACA-7005; ACA serum 7005 RFL): 750 µg/mL
- Percent Inhibition of AffACA by Peptide Monomers, 7005 (ACA-7005; [3]): 95%
- IC50 for peptide LJP 688 (ACA-6638; ACA serum 6638 RS): 810 µg/mL
- Percent Inhibition of AffACA by Peptide Monomers, 6638 (ACA-6638; [3]): 100%
- IC50 for peptide LJP 688 (ACA-6701; ACA serum 6701 RS): 1070 µg/mL
- Percent Inhibition of AffACA by Peptide Monomers, 6701 (ACA-6701; [3]): 100%
- IC50 for peptide LJP 688 (ACA-6644; ACA serum 6644 RS): 760 µg/mL
- Percent Inhibition of AffACA by Peptide Monomers, 6644 (ACA-6644; [3]): 100%
- IC50 for peptide LJP 688 (ACA-7004; ACA serum 7004 RFL): 670 µg/mL
- Percent Inhibition of AffACA by Peptide Monomers, 7004 (ACA-7004; [3]): 100%
- IC50 for peptide LJP 688 (ACA-6626; ACA serum 6626 RS): 1090 µg/mL
- Percent Inhibition of AffACA by Peptide Monomers, 6626 (ACA-6626; [3]): 100%
- IC50 for peptide LJP 688 (ACA-6641 [2]; ACA serum 6641 RS): 890 µg/mL and 510 µg/mL
- Percent Inhibition of AffACA by Peptide Monomers, 6641 (ACA-6641 [2]; [3]): 93%
- IC50 for peptide LJP 688 (ACA-6903; ACA serum 6903 RS): 800 µg/mL
- Percent Inhibition of AffACA by Peptide Monomers, 6903 (ACA-6903; [3]): 100%
